Experimental data: patent US7632812B2, “Methods to stimulate insulin production by pancreatic β-cells” (Massachusetts General Hospital, priority 1999, dated 2009)

Tests used:
INS-1 cells [1] = test: Insulin secretion by INS-1 cells into medium over 24 h (Rat Insulin RIA); assay type: cell-based; settings: INS-1 cells transfected with pEV control and insulin promoter-reporter construct; 24 h exposure; increasing amounts; FIG. 15
Protocol: (§1) This potential role was examined with the rat INS-1 cell line, which intrinsically expresses Ihh and Dhh proteins (FIGS. 13 and 14). […] Insulin levels were measured with a Rat Insulin RIA Kit (LINCO Research, Inc., St. Louis, Mo.) using the protocol outlined by the manufacturer. […] After 24 hours of incubation, 500 μL aliquots of culture medium were removed and serially diluted for the assay. Culture medium that was not exposed to cells was tested as a negative control for the assay. In some experiments, transfected cells were assessed for insulin secretion rates. In these experiments, after incubation with lipofectamine and DNA, the transfected cells received fresh culture medium and 24-hour insulin secretion rates were assessed. Given that the cells intrinsically express hedgehog, the cells were also treated with cyclopamine in the absence of any transfection. […] Cells were then rinsed in phosphate buffered saline and lysed in 0.1N HCl in 100% ethanol at 4° C. The lysate was incubated overnight at−70° C. The thawed lysate was vortexed and subjected to brief centrifugation at 14,000 rpm. The resulting supernatant was dried under vacuum, resuspended in […] Assay buffer, and serially diluted for insulin measurements with the Rat Insulin RIA Kit.

INS-1 cells [2] = test: Cellular insulin content of INS-1 cells (Rat Insulin RIA of lysate); assay type: cell-based; settings: untransfected INS-1 cells, 20 μM, 24 hours; FIG. 16
Protocol: as §1

[3] = system: insulin mRNA in INS-1 cells; test: Northern blot of insulin mRNA levels in INS-1 cells; assay type: cell-based, rat; settings: 20 μM, Northern RNA blots, FIG. 17
Protocol: For isolation of total RNA, cells were washed in phosphate buffered saline and lysed with Tri-Reagent (SIGMA, St-Louis, Mo.). Total cellular RNA was prepared according to the manufacturer's protocol. For each sample, 4 μg total RNA was separated by electrophoresis on a denaturing gel consisting of 1× MOPS, 1.2% agarose and 1% formaldehyde. Samples were transferred using standard methods (Ausubel et al., Short Protocols in Molecular Biology, Third Edition, John Wiley and Sons, Inc., 1995.) to nylon membranes (Hybond-N+, Amersham Pharmacia Biotech, Inc., Piscataway, N.J.) and crosslinked with ultraviolet light (UV Stratalinker 1800, Stratagene, La Jolla, Calif.). The membranes were prehybridized in Rapid-Hyb Buffer (Amersham Pharmacia Biotech, Inc.) prior to hybridization for 4 hours at 65° C. with radiolabeled probes. Insulin transcripts were probed with a 231 nucleotide fragment (spanning nucleotides 349 to 580 of the rat insulin I gene, Genbank acc. no. V01242) of rat insulin I cDNA. […] For quantitation, autoradiograms were scanned with a Computing Densitometer (Molecular Dynamics, Sunnyvale, Calif.) and individual band intensities were determined with ImageQuant software (Molecular Dynamics, Sunnyvale, Calif.). […]

rat insulin I promoter = test: Rat insulin I promoter luciferase reporter (-410 INS-luc) in transfected INS-1 cells; assay type: cell-based; settings: absence of the Shh expression construct, dose-dependent, FIG. 19
Protocol: To determine whether hedgehog regulation of insulin production occurs at the transcriptional level, INS-1 cells were transiently transfected with 5-6 μg total DNA and 10 μL Lipofectamine according to the manufacturer's instructions (GIBCO BRL Life Technologies, Inc., Gaithersburg, Md.) with increasing concentrations of Shh expression vector pSHH in the presence of a rat insulin I promoter-reporter construct −410 INS-luc. […] The plasmid −410 INS-LUC consists of a fragment of the rat insulin I gene promoter that spans nucleotides −410 to +49 inserted into the pXP2 vector that includes firefly luciferase reporter sequences (Lu, M., et al, 1997, J. Biol. Chem.: 272:28349). […] For luciferase assays, cells were harvested 24 hours after transfection with 1× Reporter Lysis Buffer (Promega, Madison, Wis.). Luciferase assays were conducted with the Luciferase Assay System as outlined by the manufacturer (Promega, Madison, Wis.). Luciferase activities were normalized for extract protein concentrations as determined by the Bio-Rad Protein Assay (Bio-Rad Laboratories, Hercules, Calif.), a modified Bradford assay (Bradford, M., 1976, Anal. Biochem., 72:248).

CC1=C2C[C@H]3[C@@H](CC=C4C[C@@H](O)CC[C@@]43C)[C@@H]2CC[C@]12O[C@@H]1C[C@H](C)CN[C@H]1[C@H]2C [cyclopamine]
effect on insulin secretion (INS-1 cells [1]): increasingly inhibited insulin secretion | reduction in cellular insulin content (INS-1 cells [2]): 40% | levels of insulin mRNA [3]: decrease in the levels of insulin mRNA | inhibition of basal insulin promoter activity (rat insulin I promoter): up to 90%
